Source: patent US8198462B2, “Dendritic photoactive compound comprising oxime ester and method for preparing the same” (LG Chem, Ltd., priority 2007, dated 2012)

Test: Solubility of the photoinitiator in frequently used organic solvents
Type: physicochemical
Conditions: for Solubility in 3-MBA: solvent 3-methoxybutyl acetate (MBA); for Solubility in CH: solvent cyclohexanone (CH); for Solubility in DPM: solvent dipropylene glycol methyl ether (DPM); for Solubility in EEP: solvent ethyl-3-ethoxy propionate (EEP); for Solubility in PGMEA: solvent propylene glycol methyl ether acetate (PGMEA)
Description: For the comparison of the solubility of the compound that comprises oxime ester, in conjunction with Irgacure OXE-02 (Comparative Example 1) of Ciba Specialty Chemical, the solubilities of the compounds of Examples were measured in respects to the solvents that were frequently used, such as propylene glycol methyl ether acetate (PGMEA), dipropylene glycol methyl ether (DPM), 3-methoxybutyl acetate (MBA), ethyl-3-ethoxy propionate (EEP), and cyclohexanone (CH). The solubility was measured on the basis of how many grams of the photoinitiator were dissolved in 100 g of the solvent, and the results are described in the following Table 1.

With CCn1c2ccc(/C(CC(c3cccs3)N(OC(C)=O)C(C)=O)=N/OC(C)=O)cc2c2cc(/C(CC(c3cccs3)N(OC(C)=O)C(C)=O)=N/OC(C)=O)ccc21 (stereo not drawn) [Example 4] the “Solubility in 3-MBA” value was 30 grams in 100 g of the solvent, the “Solubility in CH” value was 100 or more grams in 100 g of the solvent and the “Solubility in DPM” value was 25 grams in 100 g of the solvent. For the same compound, the “Solubility in EEP” value was 30 grams in 100 g of the solvent and the “Solubility in PGMEA” value was 100 or more grams in 100 g of the solvent.
For CCn1c2ccc(/C(CC(c3ccccc3)N(OC(C)=O)C(C)=O)=N/OC(C)=O)cc2c2cc(/C(CC(c3ccccc3)N(OC(C)=O)C(C)=O)=N/OC(C)=O)ccc21 (stereo not drawn) [Example 3], the “Solubility in 3-MBA” value was 50 or more grams in 100 g of the solvent, the “Solubility in CH” value was 100 or more grams in 100 g of the solvent and the “Solubility in DPM” value was 50 or more grams in 100 g of the solvent. The “Solubility in EEP” value was 50 or more grams in 100 g of the solvent and the “Solubility in PGMEA” value was 100 or more grams in 100 g of the solvent.
In the case of CC(=O)O/N=C(\CC(c1ccc(C(C/C(=N\OC(C)=O)c2ccccc2)N(OC(C)=O)C(C)=O)cc1)N(OC(C)=O)C(C)=O)c1ccccc1 (stereo not drawn) [Example 1], the “Solubility in 3-MBA” value is reported as 50 or more grams in 100 g of the solvent, the “Solubility in CH” value is reported as 100 or more grams in 100 g of the solvent and the “Solubility in DPM” value is reported as 50 or more grams in 100 g of the solvent. The “Solubility in EEP” value was 50 or more grams in 100 g of the solvent and the “Solubility in PGMEA” value was 100 or more grams in 100 g of the solvent.
In the case of CCn1c2ccc(C(=O)c3ccccc3C)cc2c2cc(/C(C)=N/OC(C)=O)ccc21 [Comparative Example 1, reference compound], the “Solubility in 3-MBA” value is reported as 10 grams in 100 g of the solvent, the “Solubility in CH” value is reported as 40 grams in 100 g of the solvent and the “Solubility in DPM” value is reported as 5 grams in 100 g of the solvent. The “Solubility in EEP” value was 10 grams in 100 g of the solvent and the “Solubility in PGMEA” value was 12 grams in 100 g of the solvent.
With CSc1ccc(C(C/C(=N\OC(C)=O)c2ccc(/C(CC(c3ccc(SC)cc3)N(OC(C)=O)C(C)=O)=N/OC(C)=O)cc2)N(OC(C)=O)C(C)=O)cc1 (stereo not drawn) [Example 2] the “Solubility in 3-MBA” value was 50 or more grams in 100 g of the solvent, the “Solubility in CH” value was 100 or more grams in 100 g of the solvent and the “Solubility in DPM” value was 50 or more grams in 100 g of the solvent. The “Solubility in EEP” value was 50 or more grams in 100 g of the solvent and the “Solubility in PGMEA” value was 100 or more grams in 100 g of the solvent.
For CCn1c2ccc(/C(CC(c3ccc(SC)cc3)N(OC(C)=O)C(C)=O)=N/OC(C)=O)cc2c2cc(/C(CC(c3ccc(SC)cc3)N(OC(C)=O)C(C)=O)=N/OC(C)=O)ccc21 (stereo not drawn) [Example 5], the “Solubility in 3-MBA” value was 50 or more grams in 100 g of the solvent, the “Solubility in CH” value was 100 or more grams in 100 g of the solvent and the “Solubility in DPM” value was 50 or more grams in 100 g of the solvent. For the same compound, the “Solubility in EEP” value was 50 or more grams in 100 g of the solvent and the “Solubility in PGMEA” value was 100 or more grams in 100 g of the solvent.
